In patent US11680060B2, “Bicycloheptane pyrrolidine orexin receptor agonists” (Merck Sharp & Dohme LLC, priority 2020, dated 2023):
pIC50: −log10 of the molar value. Read-outs that look alike come from different tables or passages of the source.

Target: human OX2R (Homo sapiens (Human), UniProt O43614)
Assay: IPOne (IP-1) assay in CHO cells expressing human OX2R
Type: cell-based
Conditions: for pIC50: CHO cells expressing human OX2R, IP-One detection, 2 hours incubation, EC50 = inflection point of four parameter logistic fit, read-out: hOX2R_IP_IC50; for Emax: CHO
Method in brief: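 CHO cells stably expressing human OX2R were stimulated with compound (10-point ½-log dilutions) for 2 h at 37 °C. IP-1 accumulation was read by HTRF (IP-One, 665/620 nm). EC50 from a four-parameter fit; % effect relative to 1 μM reference agonist control.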

[1] = percentage of mean max effect of a reference compound at 1 uM (100% activity by comparison to Orexin A), human OX2R, read-out: Emax (%)
[2] = percentage of mean max effect of a reference compound at 1 uM (100% activity by comparison to Orexin A), human OX2R

human OX2R, sequence (O43614 whole entry): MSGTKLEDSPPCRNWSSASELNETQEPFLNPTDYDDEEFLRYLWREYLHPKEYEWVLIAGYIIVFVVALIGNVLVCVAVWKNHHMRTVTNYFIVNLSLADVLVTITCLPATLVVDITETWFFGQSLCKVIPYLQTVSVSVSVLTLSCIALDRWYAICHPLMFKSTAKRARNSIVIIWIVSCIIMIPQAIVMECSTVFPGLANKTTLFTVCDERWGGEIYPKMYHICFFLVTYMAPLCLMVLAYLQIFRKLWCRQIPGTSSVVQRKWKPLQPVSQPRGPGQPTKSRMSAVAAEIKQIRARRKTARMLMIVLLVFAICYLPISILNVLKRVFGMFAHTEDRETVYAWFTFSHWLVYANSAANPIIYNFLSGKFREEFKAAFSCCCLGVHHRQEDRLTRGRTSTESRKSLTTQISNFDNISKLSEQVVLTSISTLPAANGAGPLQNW

pIC50	Emax [1] [%]	Structure (SMILES)	further results
9.39	99.4	COC(=O)N1[C@H](C)C[C@H](NS(=O)(=O)N(C)C)[C@@H]1CO[C@H]1CC[C@@]2(c3ncc(F)cn3)C[C@H]2C1 [Example 166, methyl (2R,3S,5R)-3-((N,N-dimethylsulfamoyl)amino)-2-((((1S,3S,6R)-6-(5-fluoropyrimidin-2-yl)bicyclo[4.1.0]heptan-3-yl)oxy)methyl)-5-methylpyrrolidine-1-carboxylate]	
	74.5	COC(=O)N1[C@H](C)C[C@H](NS(C)(=O)=O)[C@@H]1COC1CCC2(c3ncc(F)c(C)n3)CC2C1 (stereo partly drawn) [Example 77, methyl (2R,3S,5R)-2-(((6-(5-fluoro-4-methylpyrimidin-2-yl)bicyclo[4.1.0]heptan-3-yl)oxy)methyl)-5-methyl-3-(methylsulfonamido)pyrrolidine-1-carboxylate]	
9.10	102	CC(C)OC(=O)N1[C@H](C)C[C@H](NS(=O)(=O)N(C)C)[C@@H]1CO[C@H]1CC[C@@]2(c3ncc(F)cn3)C[C@H]2C1 (single isomer, unassigned) [Example 161]	
7.72	102	COC(=O)N1[C@H](C)C[C@H](NS(C)(=O)=O)[C@@H]1CO[C@H]1CC[C@@]2(c3ncc(C)cn3)C[C@H]2C1 (single isomer, unassigned) [Example 156]	
	102	COC(=O)N1[C@H](C(F)F)C[C@H](NS(=O)(=O)C2CC2)[C@@H]1COC1CCC2(c3ncc(F)cn3)CC2C1 (stereo partly drawn) [Example 116, methyl (2R,3S,5S)-3-(cyclopropanesulfonamido)-5-(difluoromethyl)-2-(((6-(5-fluoropyrimidin-2-yl)bicyclo[4.1.0]heptan-3-yl)oxy)methyl)pyrrolidine-1-carboxylate]	
9.07	103	COC(=O)N1[C@H](C)C[C@H](NS(=O)(=O)CF)[C@@H]1CO[C@H]1CC[C@@]2(c3ncc(Cl)cn3)C[C@H]2C1 [Example 79, methyl (2R,3S,5R)-2-((((1S,3S,6R)-6-(5-chloropyrimidin-2-yl)bicyclo[4.1.0]heptan-3-yl)oxy)methyl)-3-((fluoromethyl)sulfonamido)-5-methylpyrrolidine-1-carboxylate]	
		C[C@@H]1C[C@H](NS(C)(=O)=O)[C@H](CO[C@H]2CC[C@@]3(c4ncc(F)cn4)C[C@H]3C2)N1C(=O)OCC1CC(F)C1 (stereo partly drawn) [Example 49, (3-fluorocyclobutyl)methyl (2R,3S,5R)-2-((((1S,3S,6R)-6-(5-fluoropyrimidin-2-yl)bicyclo[4.1.0]heptan-3-yl)oxy)methyl)-5-methyl-3-(methylsulfonamido)pyrrolidine-1-carboxylate]	Emax: 103%
8.85	98.6	CCS(=O)(=O)N[C@H]1C[C@@H](C(F)F)N(C(=O)OC)[C@H]1CO[C@H]1CC[C@@]2(c3ncc(Cl)cn3)C[C@H]2C1 (single isomer, unassigned) [Example 114]	
6.14	54.3	COC(=O)N1[C@H](C)C[C@H](NS(C)(=O)=O)[C@@H]1CO[C@@H]1CC[C@]2(c3ncc(C)cn3)C[C@@H]2C1 (single isomer, unassigned) [Example 155]	
	102	CC(C)OC(=O)N1[C@H](C)C[C@H](NS(C)(=O)=O)[C@@H]1CO[C@@H]1CC[C@]2(c3ncc(F)cn3)C[C@@H]2C1 [Example 29, isopropyl (2R,3S,5R)-2-((((1R,3R,6S)-6-(5-fluoropyrimidin-2-yl)bicyclo[4.1.0]heptan-3-yl)oxy)methyl)-5-methyl-3-(methylsulfonamido)pyrrolidine-1-carboxylate]	
	99.8	COC(=O)N1[C@H](C)C[C@H](NS(=O)(=O)N(C)C)[C@@H]1COC1CCC2(c3ccc(C#N)cc3)CC2C1 (stereo partly drawn) [Example 5, methyl (2R,3S,5R)-2-(((6-(4-cyanophenyl)bicyclo[4.1.0]heptan-3-yl)oxy)methyl)-3-((N,N-dimethylsulfamoyl)amino)-5-methylpyrrolidine-1-carboxylate]	
	99.9	COC(=O)N1[C@@H]2CCC[C@@H]2[C@H](NS(C)(=O)=O)[C@@H]1COC1CCC2(c3ncccn3)CC2C1 (stereo partly drawn) [Example 175, methyl (2R,3S,3aS,6aR)-3-(methylsulfonamido)-2-(((6-(pyrimidin-2-yl)bicyclo[4.1.0]heptan-3-yl)oxy)methyl)hexahydrocyclopenta[b]pyrrole-1(2H)-carboxylate]	
	102	CC(C)OC(=O)N1[C@H](C)C[C@H](NS(=O)(=O)C(F)F)[C@@H]1COC1CCC2(c3ncc(Cl)cn3)CC2C1 (stereo partly drawn) [Example 82, isopropyl (2R,3S,5R)-2-(((6-(5-chloropyrimidin-2-yl)bicyclo[4.1.0]heptan-3-yl)oxy)methyl)-3-((difluoromethyl)sulfonamido)-5-methylpyrrolidine-1-carboxylate]	
8.37	101	CC(C)OC(=O)N1[C@H](C)C[C@H](NS(=O)(=O)CF)[C@@H]1CO[C@H]1CC[C@@]2(c3ncc(Br)cn3)C[C@H]2C1 (single isomer, unassigned) [Example 103]	
	99.9	COC(=O)N1[C@H](C)C[C@H](NS(=O)(=O)N(C)C)[C@@H]1COC1CCC2(c3cccc(F)c3)CC2C1 (mixture of isomers) [Example 3, methyl (2R,3S,5R)-3-((N,N-dimethylsulfamoyl)amino)-2-(((6-(3-fluorophenyl)bicyclo[4.1.0]heptan-3-yl)oxy)methyl)-5-methylpyrrolidine-1-carboxylate]	
5.65	89.7	COC(=O)N1[C@H](C)C[C@H](NS(C)(=O)=O)[C@@H]1COC1CCC2(c3ncccn3)CC2C1 (single isomer, unassigned) [Example 183]	
	101	C[C@@H]1C[C@H](NS(C)(=O)=O)[C@H](CO[C@H]2CC[C@@]3(c4ncc(F)cn4)C[C@H]3C2)N1C(=O)OCC(F)F [Example 66, 2,2-difluoroethyl (2R,3S,5R)-2-((((1S,3S,6R)-6-(5-fluoropyrimidin-2-yl)bicyclo[4.1.0]heptan-3-yl)oxy)methyl)-5-methyl-3-(methylsulfonamido)pyrrolidine-1-carboxylate]	
	105	CCCS(=O)(=O)N[C@H]1C[C@@H](C)N(C(=O)OC)[C@H]1CO[C@H]1CC[C@@]2(c3ncc(F)cn3)C[C@H]2C1 [Example 33, methyl (2R,3S,5R)-2-((((1S,3S,6R)-6-(5-fluoropyrimidin-2-yl)bicyclo[4.1.0]heptan-3-yl)oxy)methyl)-5-methyl-3-(propylsulfonamido)pyrrolidine-1-carboxylate]	
8.70	102	COC(=O)N1[C@H](C)C[C@H](NS(=O)(=O)CF)[C@@H]1CO[C@H]1CC[C@@]2(c3ncc(Br)cn3)C[C@H]2C1 (single isomer, unassigned) [Example 87]	
8.68		COC(=O)N1[C@H](C)C[C@H](NS(=O)(=O)N(C)C)[C@@H]1COC1CCC2(c3ncccn3)CC2C1 (single isomer, unassigned) [Example 187]	Emax (%) [2]: 100.0%
	98.1	COC(=O)N1[C@H](C)C[C@H](NS(C)(=O)=O)[C@@H]1COC1CCC2(c3ncc(C)cn3)CC2C1 (stereo partly drawn) [Example 159, methyl (2R,3S,5R)-5-methyl-2-(((6-(5-methylpyrimidin-2-yl)bicyclo[4.1.0]heptan-3-yl)oxy)methyl)-3-(methylsulfonamido)pyrrolidine-1-carboxylate]	
	101	COC(=O)N1[C@H](C)C[C@H](NS(=O)(=O)CC(C)C)[C@@H]1CO[C@H]1CC[C@@]2(c3ncc(F)cn3)C[C@H]2C1 [Example 35, methyl (2R,3S,5R)-2-((((1S,3S,6R)-6-(5-fluoropyrimidin-2-yl)bicyclo[4.1.0]heptan-3-yl)oxy)methyl)-5-methyl-3-((2-methylpropyl)sulfonamido)pyrrolidine-1-carboxylate]	
9.02	103	CC(C)OC(=O)N1CCC[C@H](NS(C)(=O)=O)[C@@H]1CO[C@H]1CC[C@@]2(c3ncc(F)cn3)C[C@H]2C1 (single isomer, unassigned) [Example 125]	
	98.7	COC(=O)N1[C@H](C)C[C@H](NS(C)(=O)=O)[C@@H]1CO[C@@H]1CC[C@]2(c3ncc(Cl)cn3)C[C@@H]2C1 [Example 141, methyl (2R,3S,5R)-2-((((1R,3R,6S)-6-(5-chloropyrimidin-2-yl)bicyclo[4.1.0]heptan-3-yl)oxy)methyl)-5-methyl-3-(methylsulfonamido)pyrrolidine-1-carboxylate]	
		COC(=O)N1CC[C@H](NS(C)(=O)=O)[C@@H]1COC1CCC2(c3ncccn3)CC2C1 (stereo partly drawn) [Example 21, methyl (2R,3S)-3-(methylsulfonamido)-2-(((6-(pyrimidin-2-yl)bicyclo[4.1.0]heptan-3-yl)oxy)methyl)pyrrolidine-1-carboxylate]	Emax (%) [2]: 94.6%
	102	COC(=O)N1[C@H](C)C[C@H](NS(=O)(=O)C2COC2)[C@@H]1CO[C@H]1CC[C@@]2(c3ncc(F)cn3)C[C@H]2C1 [Example 40, methyl (2R,3S,5R)-2-((((1S,3S,6R)-6-(5-fluoropyrimidin-2-yl)bicyclo[4.1.0]heptan-3-yl)oxy)methyl)-5-methyl-3-(oxetane-3-sulfonamido)pyrrolidine-1-carboxylate]	
	103	CC(C)OC(=O)N1[C@H](C)C[C@H](NS(C)(=O)=O)[C@@H]1CO[C@H]1CC[C@@]2(c3ncc(F)cn3)C[C@H]2C1 [Example 28, isopropyl (2R,3S,5R)-2-((((1S,3S,6R)-6-(5-fluoropyrimidin-2-yl)bicyclo[4.1.0]heptan-3-yl)oxy)methyl)-5-methyl-3-(methylsulfonamido)pyrrolidine-1-carboxylate]	
	99.5	COC(=O)N1[C@H](C)C[C@H](NS(C)(=O)=O)[C@@H]1COC1CCC2(c3ncc(F)cn3)CC2C1 (stereo partly drawn) [Example 135, methyl (2R,3S,5R)-2-(((6-(5-fluoropyrimidin-2-yl)bicyclo[4.1.0]heptan-3-yl)oxy)methyl)-5-methyl-3-(methylsulfonamido)pyrrolidine-1-carboxylate]	
